Patent US4212881A, “Streptovaricin C derivatives” (priority 1978, dated 1980)

target: reverse-transcriptase of mouse Sarcoma virus (Moloney murine leukemia virus, UniProt P03355); experiment: Effect for inhibiting reverse-transcriptase of mouse Sarcoma virus; type: biochemical; conditions: 300 μg/ml; virus protein (MLV-moloney), 37° C. 60 minutes
Experimental: Effect for inhibiting reverse-transcriptase of mouse Sarcoma virus.
The effect for inhibition was determined as follows:
Methanol solution containing each active ingredient at a concentration of 6 mg/ml.
Solution containing 240 μg of virus protein (MLV-moloney) in 1 ml of a buffer solution of 20 mM-tris-hydrochloric acid (pH 7.8), 0.1 M-sodium chloride and 1 mM of dithiotersitol (DTT).
Reaction medium containing 46 mM tris-hydrochloric acid (pH 8.1) 92 mM potassium chloride, 15.4 mM manganese chloride, 0.77 mM-dATP, 0.77 mM-dCTP, 0.77 mM-dGTP, 0.23 μM-3H-TTP (50 ci/mM), 7.7 mM-DTT and 0.038% NP-40.
The reaction mixture was prepared by sequentially admixing (a) 5 μl, with (b) 30 μl and (c) 65 μl and the mixture was thoroughly mixed and kept at 0° C. for 5 minutes. Then, the reaction mixture was kept at 37° C. for 60 minutes and 1 ml of cold 10% trichloroacetic acid solution was added to the reaction mixture to stop the reaction. The mixture was kept at 0° C. for 20 minutes and an insoluble components were collected on each Whatman's paper GF/c (diameter of 2.5 cm) and washed with 5 ml of cold 5% trichloroacetic acid. The residue was dried in an oven at 80° C. and charged in a viral bottle containing 10 ml of toluene solution containing scintillator PPO-POPOP, and radioactivity was measured by a scintillation spectrometer.

Molecule	Percent inhibition (%)
19-O-benzyl atropisodamavaricin Fc (containing 19-O-benzyl damavaricin Fc) [Example 2]	67
19-O-methyl-atropisodamavaricin Fc (containing 19-O-methyl damavaricin Fc) [Example 1]	41

same assay, conditions: read-out: Percent inhibition (%)

Molecule	inhibition at 300 µg/mL [%]
CCOc1c(C)c(O)c2c3c1C(=O)C(C)=CC(C)(O)C(O)C(C)C(O)C1C(=O)OC(C(C)C=CC=C(C)C(=O)NC(=C(C)C3=O)C2=O)C(C)C1O (stereo not drawn) [Example 4]	60
CCCOc1c(C)c(O)c2c3c1C(=O)C(C)=CC(C)(O)C(O)C(C)C(O)C1C(=O)OC(C(C)C=CC=C(C)C(=O)NC(=C(C)C3=O)C2=O)C(C)C1O (stereo not drawn) [Example 5]	52
CCCCOc1c(C)c(O)c2c3c1C(=O)C(C)=CC(C)(O)C(O)C(C)C(O)C1C(=O)OC(C(C)C=CC=C(C)C(=O)NC(=C(C)C3=O)C2=O)C(C)C1O (stereo not drawn) [Example 6]	78
CCCCCOc1c(C)c(O)c2c3c1C(=O)C(C)=CC(C)(O)C(O)C(C)C(O)C1C(=O)OC(C(C)C=CC=C(C)C(=O)NC(=C(C)C3=O)C2=O)C(C)C1O (stereo not drawn) [Example 7]	52
CCCCCCOc1c(C)c(O)c2c3c1C(=O)C(C)=CC(C)(O)C(O)C(C)C(O)C1C(=O)OC(C(C)C=CC=C(C)C(=O)NC(=C(C)C3=O)C2=O)C(C)C1O (stereo not drawn) [Example 8]	60
CCCCCCCCOc1c(C)c(O)c2c3c1C(=O)C(C)=CC(C)(O)C(O)C(C)C(O)C1C(=O)OC(C(C)C=CC=C(C)C(=O)NC(=C(C)C3=O)C2=O)C(C)C1O (stereo not drawn) [Example 10]	41
CCCCCCCCCCCOc1c(C)c(O)c2c3c1C(=O)C(C)=CC(C)(O)C(O)C(C)C(O)C1C(=O)OC(C(C)C=CC=C(C)C(=O)NC(=C(C)C3=O)C2=O)C(C)C1O (stereo not drawn) [Example 13]	78
C=CCOc1c(C)c(O)c2c3c1C(=O)C(C)=CC(C)(O)C(O)C(C)C(O)C1C(=O)OC(C(C)C=CC=C(C)C(=O)NC(=C(C)C3=O)C2=O)C(C)C1O (stereo not drawn) [Example 20]	65
CC1=CC=CC(C)C2OC(=O)C(C(O)C2C)C(O)C(C)C(O)C(C)(O)C=C(C)C(=O)c2c(OC3CCCCC3)c(C)c(O)c3c2C(=O)C(C)=C(NC1=O)C3=O (stereo not drawn) [Example 22]	45
CC(=O)COc1c(C)c(O)c2c3c1C(=O)C(C)=CC(C)(O)C(O)C(C)C(O)C1C(=O)OC(C(C)C=CC=C(C)C(=O)NC(=C(C)C3=O)C2=O)C(C)C1O (stereo not drawn) [Example 24]	58
CC1=CC=CC(C)C2OC(=O)C(C(O)C2C)C(O)C(C)C(O)C(C)(O)C=C(C)C(=O)c2c(OCC(=O)c3ccccc3)c(C)c(O)c3c2C(=O)C(C)=C(NC1=O)C3=O (stereo not drawn) [Example 30]	50

system: mouse; experiment: Acute toxicity (LD50) in mouse; type: in vivo; conditions: intramuscular injection
Experimental: Acute toxicity of the novel streptovaricin C derivatives (I) are remarkably low level. For example, 19-O-methyl compound (I) has LD50 to mouse of more than 1000 mg/kg in intramuscular injection and more than 3000 mg/kg in oral dose.

Molecule	LD50
19-O-methyl-atropisodamavaricin Fc (containing 19-O-methyl damavaricin Fc) [Example 1]	more than 1000 mg/kg

same assay, conditions: oral dose

Molecule	LD50
19-O-methyl-atropisodamavaricin Fc (containing 19-O-methyl damavaricin Fc) [Example 1]	more than 3000 mg/kg
